# Source: ChEMBL document CHEMBL1201862, “PubChem BioAssay data set” (2004)
# Calls of active or inactive are those of the source. Rule as the data show it: actives have a measured IC50 and inactives only a lower limit.
# Target: Envelope glycoprotein gp160 (Human immunodeficiency virus 1, UniProt Q6QLK5)
# Assay: cell-free HIV fusion peptide-binding blockers – biochemical, uHTS, fluorescence dequenching, […] (AID 1986)
# Envelope glycoprotein gp160, sequence (Q6QLK5 whole entry, the tested form may be a part): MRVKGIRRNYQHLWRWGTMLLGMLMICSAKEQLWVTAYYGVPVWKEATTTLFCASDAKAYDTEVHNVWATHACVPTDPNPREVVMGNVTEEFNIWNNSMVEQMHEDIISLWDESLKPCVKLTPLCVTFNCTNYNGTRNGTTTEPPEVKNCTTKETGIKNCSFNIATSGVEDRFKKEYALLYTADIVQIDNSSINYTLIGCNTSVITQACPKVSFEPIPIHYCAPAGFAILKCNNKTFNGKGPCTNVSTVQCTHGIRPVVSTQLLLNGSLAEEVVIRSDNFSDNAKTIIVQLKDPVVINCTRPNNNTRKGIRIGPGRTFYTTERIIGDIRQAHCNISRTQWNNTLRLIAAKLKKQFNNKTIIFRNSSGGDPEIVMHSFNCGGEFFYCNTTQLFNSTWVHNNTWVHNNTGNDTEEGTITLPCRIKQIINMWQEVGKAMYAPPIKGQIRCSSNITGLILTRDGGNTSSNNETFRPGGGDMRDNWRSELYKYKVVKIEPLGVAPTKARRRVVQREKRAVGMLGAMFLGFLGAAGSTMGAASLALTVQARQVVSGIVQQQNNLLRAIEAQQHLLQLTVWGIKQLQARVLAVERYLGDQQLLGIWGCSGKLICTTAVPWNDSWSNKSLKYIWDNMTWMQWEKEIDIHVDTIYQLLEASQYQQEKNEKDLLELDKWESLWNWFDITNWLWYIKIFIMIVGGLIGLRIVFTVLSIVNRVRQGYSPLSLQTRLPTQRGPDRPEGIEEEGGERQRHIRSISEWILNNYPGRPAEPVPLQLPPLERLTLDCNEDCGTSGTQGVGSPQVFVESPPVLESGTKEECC
row,Compound,IC50
1,O=S(=O)(Nc1nc2ccccc2nc1Nc1cccc(S(=O)(=O)N2CCCCC2)c1)c1ccccc1,13.3 µM (active)
2,COc1ccc(C(=O)/C=C/c2ccc(OCc3ccccc3)cc2)cc1CSCC(=O)O,25.7 µM (active)
3,Cc1cc(/C=C2/C(=N)N3C(=NC2=O)SN=C3S(C)(=O)=O)c(C)n1-c1ccccc1,19.1 µM (active)
